In US20220218715A1, “NOVEL USE OF PYRROLO-PYRIDINE DERIVATIVE COMPOUND FOR PREVENTION AND/OR TREATMENT OF CANCER” (VORONOI CO., LTD., priority 2019, published 2022):

Key:
PHKG2 = molecular target: T1, PHKG2 (Homo sapiens, UniProt P15735); assay: scanMAX Kinase analysis panel (DiscoverX); assay type: binding; conditions: 1 μM in DMSO
T1 construct: purchased DiscoverX
Excerpt: (§1) [(Example Compound−Positive Control)/(Negative Control−Positive Control)×100]

JNK1 = molecular target: T2, JNK1 (Homo sapiens, UniProt P45983); assay: scanMAX Kinase analysis panel (DiscoverX); assay type: binding; conditions: 1 μM in DMSO
T2 construct: purchased DiscoverX
Excerpt: as §1

HUNK = molecular target: T3, HUNK (Homo sapiens, UniProt P57058); assay: scanMAX Kinase analysis panel (DiscoverX); assay type: binding; conditions: 1 μM in DMSO
T3 construct: purchased DiscoverX scanMAX Kinase analysis panel
Excerpt: as §1

STK33 = molecular target: T4, STK33 (Homo sapiens, UniProt Q9BYT3); assay: scanMAX Kinase analysis panel (DiscoverX); assay type: binding; conditions: 1 μM in DMSO
T4 construct: purchased DiscoverX
Excerpt: as §1

CSNK1A1 = molecular target: T5, CSNK1A1 (Homo sapiens, UniProt P48729); assay: scanMAX Kinase analysis panel (DiscoverX); assay type: binding; conditions: 1 μM in DMSO
T5 construct: purchased DiscoverX
Excerpt: as §1

MAPKAPK2 = molecular target: T6, MAPKAPK2 (Homo sapiens, UniProt P49137); assay: scanMAX Kinase analysis panel (DiscoverX); assay type: binding; conditions: 1 μM in DMSO
T6 construct: purchased DiscoverX scanMAX Kinase analysis panel
Excerpt: as §1

PAK2 = molecular target: T7, PAK2 (Homo sapiens, UniProt Q13177); assay: scanMAX Kinase analysis panel (DiscoverX); assay type: binding; conditions: 1 μM in DMSO
T7 construct: purchased DiscoverX
Excerpt: as §1

ALK (L1196M) = molecular target: T8, ALK (L1196M) (Homo sapiens, UniProt Q9UM73, L1196M); assay: scanMAX Kinase analysis panel (DiscoverX); assay type: binding; conditions: 1 μM in DMSO
T8 construct: purchased DiscoverX
Excerpt: as §1

LTK = molecular target: T9, LTK (Homo sapiens, UniProt P29376); assay: scanMAX Kinase analysis panel (DiscoverX); assay type: binding; conditions: 1 μM in DMSO
T9 construct: purchased DiscoverX
Excerpt: as §1

ERK5 = molecular target: T10, ERK5 (Homo sapiens, UniProt Q13164); assay: scanMAX Kinase analysis panel (DiscoverX); assay type: binding; conditions: 1 μM in DMSO
T10 construct: purchased DiscoverX scanMAX Kinase analysis panel
Excerpt: as §1

JNK2 = molecular target: T11, JNK2 (Homo sapiens, UniProt P45984); assay: scanMAX Kinase analysis panel (DiscoverX); assay type: binding; conditions: 1 μM in DMSO
T11 construct: purchased DiscoverX scanMAX Kinase analysis panel
Excerpt: as §1

PHKG1 = molecular target: T12, PHKG1 (Homo sapiens, UniProt Q16816); assay: scanMAX Kinase analysis panel (DiscoverX); assay type: binding; conditions: 1 μM in DMSO
T12 construct: purchased DiscoverX
Excerpt: as §1

ABL1-nonphosphorylated = molecular target: T13, ABL1-nonphosphorylated (Homo sapiens, UniProt P00519); assay: scanMAX Kinase analysis panel (DiscoverX); assay type: binding; conditions: 1 μM in DMSO
T13 construct: purchased DiscoverX
Excerpt: as §1

CAMKK2 = molecular target: T14, CAMKK2 (Homo sapiens, UniProt Q96RR4); assay: scanMAX Kinase analysis panel (DiscoverX); assay type: binding; conditions: 1 μM in DMSO
T14 construct: purchased DiscoverX
Excerpt: as §1

PLK4 = molecular target: T15, PLK4 (Homo sapiens, UniProt O00444); assay: scanMAX Kinase analysis panel (DiscoverX); assay type: binding; conditions: 1 μM in DMSO
T15 construct: purchased DiscoverX scanMAX Kinase analysis panel
Excerpt: as §1

STK39 = molecular target: T16, STK39 (Homo sapiens, UniProt Q9UEW8); assay: scanMAX Kinase analysis panel (DiscoverX); assay type: binding; conditions: 1 μM in DMSO
T16 construct: purchased DiscoverX scanMAX Kinase analysis panel
Excerpt: as §1

PC-9 lung cancer cells = assay: Anticancer effect in mouse model with PC-9 lung cancer cells; assay type: in vivo, Balb/c Nude Mice; conditions: PC-9 model
Experimental: The PC-9 cell line was purchased from NanJing Cobioer Biological Technology Co., Ltd. Cells were kept in RPMI-1640 containing 10% FBS, and cultured in a 37° C. humidified cell culture incubator at 5% […]. All animal experiments were carried out according to the Animal Use and Management Guidelines of Shanghai Medicilon Inc. Under sterile conditions, 2×10^6 PC-9 tumor cells (0.1 mL, cell:Matrigel®=1:1) was administered to the right waist of each animal by S.C. administration. Tumor size and animal body weight were measured twice weekly, and clinical symptoms were recorded daily. The mice will be administered individually according to most recent body weight. The tumors were measured using calipers using two measurements, length (a) and width (b). The volume of the tumors was calculated individually as follows, from the two measured diameters of the tumors: tumor volume (mm^3)=(a×b^2)/2.

H1975 cell line = assay: Lung cancer cell colony formation inhibition; assay type: cell-based; conditions: concomitant treatment with Gefitinib or Osimertinib, vs single treatment or Harmine, from 10 days, FIG. 1
Excerpt: Specifically, the H1975 cell line was purchased from the ATCC (American Type Culture Collection, and RPMI-1640 with 10% FBS and 1% penicillin streptomycin was used.
The remaining colony-forming cells were fixed with methanol (1%) and formaldehyde (1%), then dyed with 0.5% crystal violet before photographing each well.

3LL lung cancer = assay: Anticancer effect in 3LL lung cancer transplant mouse model; assay type: in vivo, female C57BL/6 mouse
Experimental: (§2) The 3LL cells were cultured in Hams F10:L15=3:7 culture medium, the EMT-6 cells were cultured in Waymouth's MB 752/1 culture medium, and the MC38 cells were cultured in a DMEM culture medium with 10% FBS and 1% penicillin streptomycin, at 37° C. in a 5% CO2 humidified cell culture incubator.
The mouse PD-1 antibody (BE-0146), PD-L1 antibody (BE-0101), and CTLA-4 antibody (BE-0131) were purchased from BioXcell.
(§3) All animal tests were carried out through WuXi AppTec.

[1] = tested on: Ba/F3 EGFR L858R/T790M/C797S cells; assay: Cell growth inhibition, celltiterglo; assay type: cell-based; conditions: 72 hours, concomitant use with Osimertinib, compared with same amount of Harmine, FIG. 8
Experimental: The cells were treated for 72 hours using a serially diluted compound. The cell activity inhibition results for the compounds were measured using celltiterglo.

EMT6 breast cancer = assay: Anticancer effect in EMT6 breast cancer transplant mouse model; assay type: in vivo, female C57BL/6 mouse; conditions: singular treatment, 45, 60, 75 mg/kg po BID, FIG. 6a
Experimental: as §2, §3

T3 sequence (P57058 whole entry): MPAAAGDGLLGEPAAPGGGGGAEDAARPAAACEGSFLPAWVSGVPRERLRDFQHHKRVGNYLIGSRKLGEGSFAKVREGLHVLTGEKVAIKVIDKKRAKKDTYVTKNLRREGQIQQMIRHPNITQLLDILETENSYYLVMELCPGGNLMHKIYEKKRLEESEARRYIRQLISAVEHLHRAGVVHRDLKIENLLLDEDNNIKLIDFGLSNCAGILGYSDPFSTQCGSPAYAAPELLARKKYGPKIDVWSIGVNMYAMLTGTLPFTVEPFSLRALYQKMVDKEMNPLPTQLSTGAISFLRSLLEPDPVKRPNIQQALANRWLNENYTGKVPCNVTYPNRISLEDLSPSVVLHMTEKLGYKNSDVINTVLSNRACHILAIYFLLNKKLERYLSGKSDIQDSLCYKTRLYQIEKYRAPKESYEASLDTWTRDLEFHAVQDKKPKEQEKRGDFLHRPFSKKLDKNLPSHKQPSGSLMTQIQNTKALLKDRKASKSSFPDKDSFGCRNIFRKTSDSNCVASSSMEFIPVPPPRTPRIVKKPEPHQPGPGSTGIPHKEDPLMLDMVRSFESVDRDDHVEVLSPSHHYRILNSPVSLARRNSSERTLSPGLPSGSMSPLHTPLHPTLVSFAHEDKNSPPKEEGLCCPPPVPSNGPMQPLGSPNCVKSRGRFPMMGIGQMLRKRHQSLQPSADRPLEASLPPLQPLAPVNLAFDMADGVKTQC
T15 sequence (O00444 whole entry): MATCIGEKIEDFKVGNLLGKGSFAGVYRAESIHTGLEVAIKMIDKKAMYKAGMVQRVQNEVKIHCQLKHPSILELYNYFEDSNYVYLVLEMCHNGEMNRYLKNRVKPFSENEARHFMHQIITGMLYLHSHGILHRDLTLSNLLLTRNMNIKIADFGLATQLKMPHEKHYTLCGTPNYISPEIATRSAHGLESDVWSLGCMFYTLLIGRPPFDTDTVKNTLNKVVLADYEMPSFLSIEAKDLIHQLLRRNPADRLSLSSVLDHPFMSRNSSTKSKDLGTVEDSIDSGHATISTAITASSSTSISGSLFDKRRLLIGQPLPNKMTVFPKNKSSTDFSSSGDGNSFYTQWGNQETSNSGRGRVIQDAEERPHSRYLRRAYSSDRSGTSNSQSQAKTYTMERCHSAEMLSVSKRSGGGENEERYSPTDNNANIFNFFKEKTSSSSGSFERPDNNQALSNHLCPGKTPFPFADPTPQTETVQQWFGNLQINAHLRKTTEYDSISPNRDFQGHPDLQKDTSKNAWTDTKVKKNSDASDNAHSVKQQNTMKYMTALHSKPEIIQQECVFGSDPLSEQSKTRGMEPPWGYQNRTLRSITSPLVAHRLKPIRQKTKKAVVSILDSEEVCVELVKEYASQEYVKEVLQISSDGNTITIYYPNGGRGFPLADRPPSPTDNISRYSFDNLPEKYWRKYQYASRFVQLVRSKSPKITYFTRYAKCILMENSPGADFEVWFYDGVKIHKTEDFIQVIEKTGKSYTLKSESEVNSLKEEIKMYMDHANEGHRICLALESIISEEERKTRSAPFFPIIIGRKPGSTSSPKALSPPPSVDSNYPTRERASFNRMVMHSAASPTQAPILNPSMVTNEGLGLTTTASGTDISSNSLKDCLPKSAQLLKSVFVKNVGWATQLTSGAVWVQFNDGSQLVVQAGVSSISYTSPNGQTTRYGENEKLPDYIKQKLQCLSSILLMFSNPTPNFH
T5 sequence (P48729 whole entry): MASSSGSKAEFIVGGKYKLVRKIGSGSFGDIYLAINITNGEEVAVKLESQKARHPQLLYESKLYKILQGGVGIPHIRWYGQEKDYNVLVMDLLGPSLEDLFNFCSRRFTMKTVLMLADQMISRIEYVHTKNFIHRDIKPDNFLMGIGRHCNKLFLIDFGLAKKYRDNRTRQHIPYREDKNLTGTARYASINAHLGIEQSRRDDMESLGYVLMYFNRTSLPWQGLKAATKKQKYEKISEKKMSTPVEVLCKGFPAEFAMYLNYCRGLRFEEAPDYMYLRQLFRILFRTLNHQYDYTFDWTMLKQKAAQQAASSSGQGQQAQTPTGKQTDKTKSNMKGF
T10 sequence (Q13164 whole entry): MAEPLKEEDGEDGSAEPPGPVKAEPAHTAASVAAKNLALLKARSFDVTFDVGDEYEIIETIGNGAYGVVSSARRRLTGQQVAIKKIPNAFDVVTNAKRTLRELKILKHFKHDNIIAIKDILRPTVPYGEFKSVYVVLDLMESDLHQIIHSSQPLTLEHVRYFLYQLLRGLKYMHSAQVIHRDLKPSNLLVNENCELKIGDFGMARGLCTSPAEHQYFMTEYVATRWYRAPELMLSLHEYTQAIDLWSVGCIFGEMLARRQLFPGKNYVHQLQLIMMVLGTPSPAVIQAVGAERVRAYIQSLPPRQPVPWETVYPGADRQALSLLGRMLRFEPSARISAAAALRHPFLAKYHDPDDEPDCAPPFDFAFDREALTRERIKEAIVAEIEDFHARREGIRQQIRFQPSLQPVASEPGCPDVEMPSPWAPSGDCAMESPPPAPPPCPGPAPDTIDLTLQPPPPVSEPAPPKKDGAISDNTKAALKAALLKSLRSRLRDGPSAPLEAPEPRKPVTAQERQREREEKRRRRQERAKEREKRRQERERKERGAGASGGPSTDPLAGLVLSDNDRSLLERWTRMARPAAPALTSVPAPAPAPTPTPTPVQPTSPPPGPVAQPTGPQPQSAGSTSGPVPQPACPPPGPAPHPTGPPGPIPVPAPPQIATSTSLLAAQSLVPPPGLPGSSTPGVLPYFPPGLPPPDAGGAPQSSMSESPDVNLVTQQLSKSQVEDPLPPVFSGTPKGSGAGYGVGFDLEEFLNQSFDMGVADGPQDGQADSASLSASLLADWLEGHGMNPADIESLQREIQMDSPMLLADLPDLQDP
T11 sequence (P45984 whole entry): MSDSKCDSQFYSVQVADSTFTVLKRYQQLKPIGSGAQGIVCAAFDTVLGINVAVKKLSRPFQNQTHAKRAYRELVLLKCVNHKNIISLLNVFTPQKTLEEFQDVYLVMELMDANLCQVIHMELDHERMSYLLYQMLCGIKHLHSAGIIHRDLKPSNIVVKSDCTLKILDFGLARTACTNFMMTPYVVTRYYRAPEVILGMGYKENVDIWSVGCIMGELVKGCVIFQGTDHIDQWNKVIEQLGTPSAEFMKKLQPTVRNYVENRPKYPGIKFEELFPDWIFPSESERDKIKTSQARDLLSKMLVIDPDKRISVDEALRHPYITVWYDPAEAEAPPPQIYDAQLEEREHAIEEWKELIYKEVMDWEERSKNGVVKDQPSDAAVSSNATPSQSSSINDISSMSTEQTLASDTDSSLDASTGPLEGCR
T14 sequence (Q96RR4 whole entry): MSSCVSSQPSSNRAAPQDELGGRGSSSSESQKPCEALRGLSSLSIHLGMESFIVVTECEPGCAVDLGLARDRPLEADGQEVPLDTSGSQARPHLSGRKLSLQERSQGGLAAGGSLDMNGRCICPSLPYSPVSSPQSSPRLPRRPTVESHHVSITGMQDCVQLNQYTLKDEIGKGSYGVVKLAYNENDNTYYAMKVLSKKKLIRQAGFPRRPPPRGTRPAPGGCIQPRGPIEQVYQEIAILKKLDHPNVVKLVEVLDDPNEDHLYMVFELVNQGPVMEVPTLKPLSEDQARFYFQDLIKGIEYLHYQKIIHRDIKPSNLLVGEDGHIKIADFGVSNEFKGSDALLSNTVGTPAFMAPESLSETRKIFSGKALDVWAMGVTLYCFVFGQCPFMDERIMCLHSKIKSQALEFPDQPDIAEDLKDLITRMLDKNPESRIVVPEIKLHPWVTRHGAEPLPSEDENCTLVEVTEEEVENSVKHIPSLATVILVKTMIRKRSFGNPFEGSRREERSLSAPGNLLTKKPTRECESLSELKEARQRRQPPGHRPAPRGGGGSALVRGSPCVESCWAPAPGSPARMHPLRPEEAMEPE
T13 sequence (P00519 whole entry): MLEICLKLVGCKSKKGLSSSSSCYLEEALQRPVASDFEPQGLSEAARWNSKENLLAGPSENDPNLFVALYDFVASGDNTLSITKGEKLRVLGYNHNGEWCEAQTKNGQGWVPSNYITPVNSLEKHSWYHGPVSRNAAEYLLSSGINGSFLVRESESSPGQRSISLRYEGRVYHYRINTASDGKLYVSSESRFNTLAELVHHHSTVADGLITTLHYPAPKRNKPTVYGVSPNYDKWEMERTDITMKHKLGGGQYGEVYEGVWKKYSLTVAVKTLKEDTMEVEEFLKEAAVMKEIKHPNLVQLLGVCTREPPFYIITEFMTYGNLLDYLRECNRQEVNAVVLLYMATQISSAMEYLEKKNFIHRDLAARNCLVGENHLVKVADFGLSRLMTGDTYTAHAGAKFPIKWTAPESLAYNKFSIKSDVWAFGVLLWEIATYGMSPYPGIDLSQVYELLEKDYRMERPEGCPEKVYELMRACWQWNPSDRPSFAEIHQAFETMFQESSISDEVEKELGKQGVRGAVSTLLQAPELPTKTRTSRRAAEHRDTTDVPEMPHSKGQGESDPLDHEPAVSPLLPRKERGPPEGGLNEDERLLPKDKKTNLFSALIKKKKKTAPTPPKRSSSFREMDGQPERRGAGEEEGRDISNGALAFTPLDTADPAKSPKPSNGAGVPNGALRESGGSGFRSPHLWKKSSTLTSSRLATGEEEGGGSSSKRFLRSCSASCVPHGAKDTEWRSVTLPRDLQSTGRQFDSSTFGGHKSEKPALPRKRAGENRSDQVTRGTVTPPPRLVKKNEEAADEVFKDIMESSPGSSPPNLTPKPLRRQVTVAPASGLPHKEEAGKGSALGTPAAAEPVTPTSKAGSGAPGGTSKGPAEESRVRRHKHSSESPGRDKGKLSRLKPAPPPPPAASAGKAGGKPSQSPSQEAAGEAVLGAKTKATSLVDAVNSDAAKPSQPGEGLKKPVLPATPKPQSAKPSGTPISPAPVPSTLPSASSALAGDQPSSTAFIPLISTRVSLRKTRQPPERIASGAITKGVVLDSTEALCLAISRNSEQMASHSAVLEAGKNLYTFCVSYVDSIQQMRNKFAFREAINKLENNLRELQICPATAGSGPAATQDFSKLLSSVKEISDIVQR

inhibition at 1 µM (PHKG2): ≥ 59% | inhibition at 1 µM (JNK1): ≥ 59% | inhibition at 1 µM (HUNK): 40 to 59% | inhibition at 1 µM (STK33): ≥ 59% | inhibition at 1 µM (CSNK1A1): 40 to 59% | inhibition at 1 µM (MAPKAPK2): 40 to 59% | inhibition at 1 µM (PAK2): ≥ 59% | inhibition at 1 µM (ALK (L1196M)): ≥ 59% | inhibition at 1 µM (LTK): ≥ 59% | inhibition at 1 µM (ERK5): 40 to 59% | inhibition at 1 µM (JNK2): 40 to 59% | inhibition at 1 µM (PHKG1): ≥ 59% | inhibition at 1 µM (ABL1-nonphosphorylated): 40 to 59% | inhibition at 1 µM (CAMKK2): 40 to 59% | inhibition at 1 µM (PLK4): 40 to 59% | inhibition at 1 µM (STK39): 40 to 59%
Structure (SMILES): CCNc1cc(Nc2ccc(C(=O)N3CCC(N4CCOCC4)CC3)cc2OC)nc2[nH]cc(C(F)(F)F)c12 [Compound 1, (4-((4-(ethylamino)-3-(trifluoromethyl)-1H-pyrrolo[2,3-b]pyridine-6-yl)amino)-3-methoxyphenyl) (4-morpholinopiperidine-1-yl)methanone]
anticancer effect (PC-9 lung cancer cells; Compound 1 20 or 40 mg/kg concomitant with Gefitinib 10 mg/kg, PO QD, vs Gefitinib alone, FIG. 4): substantially reduced lung cancer (PC-9) cells | anticancer effect (PC-9 lung cancer cells; Compound 1 20 or 40 mg/kg concomitant with Osimertinib 3 mg/kg, PO QD, vs Osimertinib alone, FIG. 3): substantially reduced lung cancer (PC-9) cells | anticancer effect (PC-9 lung cancer cells; singular treatment with Compound 1, 40 mg/kg PO QD): no anticancer effect | colony formation inhibition (H1975 cell line): substantially inhibit formation of lung cancer cell colonies | tumor suppression effect (3LL lung cancer; concomitant with PD-1, PD-L1 and CTLA-4 antibodies 10 mg/kg IP BIW, FIG. 6b): improved concomitant effect | tumor suppression effect (3LL lung cancer; singular treatment, 45, 60, 75 mg/kg po BID, FIG. 6a): insignificant tumor suppression effect | cell growth inhibition effect [1]: improved cell growth inhibition effect compared to treatment with the same amount of Harmine | tumor suppression effect (EMT6 breast cancer): insignificant tumor suppression effect
